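Values below derive from 48-hour exposures of cells grown in 96-well plates, with endpoints linearly interpolated between the two concentrations bracketing the appropriate inhibition level. TGI: concentration producing complete growth inhibition.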
Columns and labels:
Assay in all cases: inhibition of tumour cell growth, NCI panel, 48 h
UACC-62 melanoma = system: UACC-62 melanoma
MALME-3M melanoma = system: MALME-3M melanoma
K-562 leukemia = system: K-562 leukemia
HOP-62 NSCLC = system: HOP-62 NSCLC
ACHN renal = system: ACHN renal
HT29 colon = system: HT29 colon
OVCAR-8 ovarian = system: OVCAR-8 ovarian
HOP-92 NSCLC = system: HOP-92 NSCLC
MDA-N = system: MDA-N
U251 CNS = system: U251 CNS
SK-MEL-2 melanoma = system: SK-MEL-2 melanoma
RPMI-8226 leukemia = system: RPMI-8226 leukemia
KM12 colon = system: KM12 colon
SF-268 CNS = system: SF-268 CNS
OVCAR-5 ovarian = system: OVCAR-5 ovarian
OVCAR-4 ovarian = system: OVCAR-4 ovarian
BT-549 breast = system: BT-549 breast
NCI-H23 lung = system: NCI-H23 lung
TK-10 renal = system: TK-10 renal
HS 578T breast = system: HS 578T breast
786-0 renal = system: 786-0 renal
NCI-H226 lung = system: NCI-H226 lung
SK-MEL-5 melanoma = system: SK-MEL-5 melanoma
HCT-116 colon = system: HCT-116 colon
DU-145 prostate = system: DU-145 prostate
A498 renal = system: A498 renal
COLO 205 colon = system: COLO 205 colon
EKVX NSCLC = system: EKVX NSCLC
IGROV1 ovarian = system: IGROV1 ovarian
UO-31 renal = system: UO-31 renal
M14 melanoma = system: M14 melanoma
SK-MEL-28 melanoma = system: SK-MEL-28 melanoma
SF-295 CNS = system: SF-295 CNS
SK-OV-3 ovarian = system: SK-OV-3 ovarian
HCT-15 colon = system: HCT-15 colon
SNB-75 CNS = system: SNB-75 CNS
T-47D breast = system: T-47D breast
SW-620 colon = system: SW-620 colon
PC-3 prostate = system: PC-3 prostate
SN12C renal = system: SN12C renal
MDA-MB-435 = system: MDA-MB-435
MDA-MB-231 breast = system: MDA-MB-231 breast
HCC-2998 colon = system: HCC-2998 colon
NCI-H522 lung = system: NCI-H522 lung
SNB-19 CNS = system: SNB-19 CNS
MCF7 breast = system: MCF7 breast
CAKI-1 renal = system: CAKI-1 renal
NCI/ADR-RES ovarian = system: NCI/ADR-RES ovarian
RXF 393 renal = system: RXF 393 renal
SF-539 CNS = system: SF-539 CNS
A549 NSCLC = system: A549 NSCLC
UACC-257 melanoma = system: UACC-257 melanoma
OVCAR-3 ovarian = system: OVCAR-3 ovarian
NCI-H460 lung = system: NCI-H460 lung
LOX IMVI melanoma = system: LOX IMVI melanoma
CCRF-CEM leukemia = system: CCRF-CEM leukemia
MOLT-4 leukemia = system: MOLT-4 leukemia
SR leukemia = system: SR leukemia

Compound `C/C(=N\NC1=NCCN1)c1cn(C2=NCCN2)nc1C` has a TGI (UACC-62 melanoma) greater than 100 µM, a TGI (MALME-3M melanoma) greater than 100 µM and a TGI (K-562 leukemia) greater than 100 µM. For the same compound, the TGI (HOP-62 NSCLC) was greater than 100 µM, the TGI (ACHN renal) was greater than 100 µM and the TGI (HT29 colon) was greater than 100 µM. For the same compound, the TGI (OVCAR-8 ovarian) was greater than 100 µM, the TGI (HOP-92 NSCLC) was greater than 100 µM and the TGI (MDA-N) was greater than 100 µM. It also gave a TGI (U251 CNS) greater than 100 µM, a TGI (SK-MEL-2 melanoma) greater than 100 µM and a TGI (RPMI-8226 leukemia) greater than 100 µM. The TGI (KM12 colon) was greater than 100 µM, the TGI (SF-268 CNS) was greater than 100 µM and the TGI (OVCAR-5 ovarian) was greater than 100 µM. The TGI (OVCAR-4 ovarian) was greater than 100 µM, the TGI (BT-549 breast) was greater than 100 µM and the TGI (NCI-H23 lung) was greater than 100 µM. The TGI (TK-10 renal) was greater than 100 µM, the TGI (HS 578T breast) was greater than 100 µM and the TGI (786-0 renal) was greater than 100 µM. The TGI (NCI-H226 lung) was greater than 100 µM, the TGI (SK-MEL-5 melanoma) was greater than 100 µM and the TGI (HCT-116 colon) was greater than 100 µM. It also gave a TGI (DU-145 prostate) greater than 100 µM, a TGI (A498 renal) greater than 100 µM and a TGI (COLO 205 colon) greater than 100 µM. The TGI (EKVX NSCLC) was greater than 100 µM, the TGI (IGROV1 ovarian) was greater than 100 µM and the TGI (UO-31 renal) was greater than 100 µM. The TGI (M14 melanoma) was greater than 100 µM, the TGI (SK-MEL-28 melanoma) was greater than 100 µM and the TGI (SF-295 CNS) was greater than 100 µM. The TGI (SK-OV-3 ovarian) was greater than 100 µM, the TGI (HCT-15 colon) was greater than 100 µM and the TGI (SNB-75 CNS) was greater than 100 µM. For the same compound, the TGI (T-47D breast) was greater than 100 µM, the TGI (SW-620 colon) was greater than 100 µM and the TGI (PC-3 prostate) was greater than 100 µM. It also gave a TGI (SN12C renal) greater than 100 µM, a TGI (MDA-MB-435) greater than 100 µM and a TGI (MDA-MB-231 breast) greater than 100 µM. For the same compound, the TGI (HCC-2998 colon) was greater than 100 µM, the TGI (NCI-H522 lung) was greater than 100 µM and the TGI (SNB-19 CNS) was greater than 100 µM. It also gave a TGI (MCF7 breast) greater than 100 µM, a TGI (CAKI-1 renal) greater than 100 µM and a TGI (NCI/ADR-RES ovarian) greater than 100 µM. For the same compound, the TGI (RXF 393 renal) was greater than 100 µM, the TGI (SF-539 CNS) was greater than 100 µM and the TGI (A549 NSCLC) was greater than 100 µM. The TGI (UACC-257 melanoma) was greater than 100 µM, the TGI (OVCAR-3 ovarian) was greater than 100 µM and the TGI (NCI-H460 lung) was greater than 100 µM.

With `Clc1ccc(CSc2ncnc3c2ncn3C2CCCCO2)cc1` (stereo not drawn) the TGI (UACC-62 melanoma) was 30 µM, the TGI (MALME-3M melanoma) was 38.4 µM and the TGI (K-562 leukemia) was 66.1 µM. It also gave a TGI (HOP-62 NSCLC) of 45.7 µM, a TGI (ACHN renal) of 29.8 µM and a TGI (HT29 colon) of 35.5 µM. For the same compound, the TGI (OVCAR-8 ovarian) was 71.5 µM, the TGI (HOP-92 NSCLC) was 89.2 µM and the TGI (LOX IMVI melanoma) was 36.3 µM. For the same compound, the TGI (MDA-N) was 43.8 µM, the TGI (U251 CNS) was 44.9 µM and the TGI (SK-MEL-2 melanoma) was 32 µM. It also gave a TGI (RPMI-8226 leukemia) of 39.4 µM, a TGI (KM12 colon) of 46.9 µM and a TGI (SF-268 CNS) of 77.4 µM. The TGI (OVCAR-5 ovarian) was greater than 100 µM, the TGI (OVCAR-4 ovarian) was greater than 100 µM and the TGI (BT-549 breast) was 68.2 µM. It also gave a TGI (NCI-H23 lung) of 64.8 µM, a TGI (TK-10 renal) of 60.4 µM and a TGI (HS 578T breast) of 76.4 µM. It also gave a TGI (786-0 renal) of 56.2 µM, a TGI (NCI-H226 lung) of 76.7 µM and a TGI (SK-MEL-5 melanoma) of 22.9 µM. The TGI (HCT-116 colon) was 53.9 µM, the TGI (DU-145 prostate) was greater than 100 µM and the TGI (A498 renal) was 31.9 µM. For the same compound, the TGI (COLO 205 colon) was 56.9 µM, the TGI (EKVX NSCLC) was 50.1 µM and the TGI (IGROV1 ovarian) was greater than 100 µM. The TGI (UO-31 renal) was 4.36 µM, the TGI (M14 melanoma) was 31 µM and the TGI (SK-MEL-28 melanoma) was 48.8 µM. For the same compound, the TGI (SF-295 CNS) was 36.7 µM, the TGI (SK-OV-3 ovarian) was 55.6 µM and the TGI (HCT-15 colon) was greater than 100 µM. For the same compound, the TGI (SNB-75 CNS) was 58.1 µM, the TGI (T-47D breast) was 57.8 µM and the TGI (SW-620 colon) was greater than 100 µM. For the same compound, the TGI (PC-3 prostate) was 74.7 µM, the TGI (SN12C renal) was 38.7 µM and the TGI (MDA-MB-435) was 38.1 µM. For the same compound, the TGI (MDA-MB-231 breast) was 86.3 µM, the TGI (HCC-2998 colon) was 38.1 µM and the TGI (NCI-H522 lung) was 33.7 µM. The TGI (SNB-19 CNS) was greater than 100 µM, the TGI (MCF7 breast) was 83.7 µM and the TGI (CAKI-1 renal) was greater than 100 µM. For the same compound, the TGI (NCI/ADR-RES ovarian) was 63.2 µM, the TGI (RXF 393 renal) was 80.2 µM and the TGI (A549 NSCLC) was greater than 100 µM. It also gave a TGI (UACC-257 melanoma) of 24.9 µM, a TGI (OVCAR-3 ovarian) of 32.5 µM and a TGI (NCI-H460 lung) of 36.7 µM.

With `CC(C)(C)C1CCC2c3c([nH]c4ccccc34)C3C(=O)N(c4cccc([N+](=O)[O-])c4)C(=O)C3C2C1` (stereo not drawn) the TGI (UACC-62 melanoma) was greater than 100 µM, the TGI (MALME-3M melanoma) was 59.7 µM and the TGI (CCRF-CEM leukemia) was greater than 100 µM. It also gave a TGI (K-562 leukemia) greater than 100 µM, a TGI (HOP-62 NSCLC) of 99.4 µM and a TGI (MOLT-4 leukemia) greater than 100 µM. For the same compound, the TGI (ACHN renal) was greater than 100 µM, the TGI (HT29 colon) was greater than 100 µM and the TGI (OVCAR-8 ovarian) was greater than 100 µM. For the same compound, the TGI (HOP-92 NSCLC) was greater than 100 µM, the TGI (LOX IMVI melanoma) was 49.8 µM and the TGI (MDA-N) was 45.7 µM. It also gave a TGI (U251 CNS) greater than 100 µM, a TGI (SK-MEL-2 melanoma) of 64.1 µM and a TGI (KM12 colon) of 25.3 µM. It also gave a TGI (SF-268 CNS) of 77.6 µM, a TGI (OVCAR-5 ovarian) greater than 100 µM and a TGI (OVCAR-4 ovarian) greater than 100 µM. The TGI (BT-549 breast) was 40 µM, the TGI (NCI-H23 lung) was greater than 100 µM and the TGI (TK-10 renal) was greater than 100 µM. The TGI (786-0 renal) was 43.7 µM, the TGI (NCI-H226 lung) was 53.1 µM and the TGI (HCT-116 colon) was 40.4 µM. It also gave a TGI (DU-145 prostate) greater than 100 µM, a TGI (A498 renal) greater than 100 µM and a TGI (COLO 205 colon) of 73.6 µM. The TGI (EKVX NSCLC) was 66.8 µM, the TGI (IGROV1 ovarian) was greater than 100 µM and the TGI (UO-31 renal) was greater than 100 µM. For the same compound, the TGI (M14 melanoma) was greater than 100 µM, the TGI (SK-MEL-28 melanoma) was greater than 100 µM and the TGI (SF-295 CNS) was greater than 100 µM. The TGI (SK-OV-3 ovarian) was greater than 100 µM, the TGI (HCT-15 colon) was greater than 100 µM and the TGI (SR leukemia) was greater than 100 µM. For the same compound, the TGI (SNB-75 CNS) was greater than 100 µM, the TGI (T-47D breast) was greater than 100 µM and the TGI (SW-620 colon) was greater than 100 µM. The TGI (PC-3 prostate) was greater than 100 µM, the TGI (SN12C renal) was 25.5 µM and the TGI (MDA-MB-435) was 81.5 µM. For the same compound, the TGI (MDA-MB-231 breast) was 92.3 µM, the TGI (HCC-2998 colon) was 63.4 µM and the TGI (NCI-H522 lung) was 48.8 µM. For the same compound, the TGI (SNB-19 CNS) was greater than 100 µM, the TGI (MCF7 breast) was greater than 100 µM and the TGI (CAKI-1 renal) was 54.2 µM. The TGI (NCI/ADR-RES ovarian) was 74.2 µM, the TGI (RXF 393 renal) was greater than 100 µM and the TGI (SF-539 CNS) was greater than 100 µM. For the same compound, the TGI (A549 NSCLC) was greater than 100 µM, the TGI (UACC-257 melanoma) was 61.6 µM and the TGI (OVCAR-3 ovarian) was greater than 100 µM. For the same compound, the TGI (NCI-H460 lung) was greater than 100 µM.
